Test results as given in PMC12246728, “Efficient Oxidative Polymerization of Hydroxytyrosol Using Horseradish Peroxidase Immobilized on a Magnetic Silica‐Coated Nanocatalyst” (Global Challenges, 2025).

Test system: T1, horseradish peroxidase (HRP)
T1 construct: gene PRXC1A
Assay: initial rate by absorbance at […] nm, Lineweaver-Burk
Format: biochemical
Conditions: free enzyme; 1 mM H2O2, pH 7.0, 25 °C; HXT 0.5-5.0 mM

Question: Which Km does the source give for OCCc1ccc(O)c(O)c1 [HXT, hydroxytyrosol] here?
Answer: 4.45 mM
